Measurements as given in US20170095440A1, “METHOD OF TREATING CANINE PANCREATITIS” (CK9, LLC, priority 2014, published 2017).
“Also recorded” adds a separate entry of the source.

Key:
[1] = tested on: dogs with suspected chronic pancreatitis; assay: Adverse drug reactions, complete blood count and serum biochemistry profile, clinical trial; format: in vivo, dog
Method: (§1) Treatment effects on overall health status, quality of life, and clinical signs were also evaluated with serum biochemistry profiles, complete blood counts, and owner questionnaires.
(§2) Twelve enrolled dogs received camostat capsules at a dosage of 4 mg/kg q 8 hrs, for a total dose of 12 mg/kg q 24 hrs. […] Individual patients were medicated for between 21 to 31 days.
(§3) Patients were treated at home and their overall health was monitored by their owners and the referring physician.
Blood samples were collected before beginning the treatment and after completion of the treatment period. Complete blood count (red blood cell count, hematocrit, mean corpuscular volume, mean corpuscular hemoglobin, mean corpuscular hemoglobin concentration, differential and absolute white blood cell count, red blood cell count, hemoglobin, platelet estimate, red blood cell morphology, white blood cell morphology, and hemoparasites) was evaluated at the Texas Veterinary Medical Diagnostic Laboratory (TVMDL). A serum chemistry profile with electrolytes (glucose, blood urea nitrogen, creatinine, calcium, phosphorus, albumin, total protein, total bilirubin, alkaline phosphatase, alanine amino transferase, aspartate amino transferase, γ-glutamyl transferase, cholesterol, triglycerides, globuline, sodium, potassium, and chloride) was performed on a SIRRUS analyzer (Stanbio, Boerne, Tex., USA). Serum concentrations of cPL (RI: 0-200 μg/L; Spec cPL® IDEXX Laboratories, Westbrook, Me., USA), cTLI (RI: 5.7-45.2 μg/L; Canine TLI DOUBLE ANTIBODY®, Siemens Healthcare Diagnostics, Los Angeles, Calif., USA), cobalamin (RI: 251-908 ng/L), and folate (RI: 7.7-24.4 μg/L; Immulite 2000®, Siemens Healthcare Diagnostics Inc., Deerfield, Ill., USA), canine specific C-reactive protein (RI: 0-7.6 mg/L, Tridelta Development Limited, Maynooth, CO. Kildare, Ireland), S100A12 (RI: 56-331 μg/L, Gastrointestinal Laboratory in-house radioimmunoassay), and TGF-β1 (RI: 38-72 ng/mL; Quantikine® ELISA, R&D Systems, Minneapolis, […]., USA) were performed at the Gastrointestinal Lab at Texas A&M University.
Pre-treatment and post-treatment results for all diagnostic tests were statistically analyzed using Prism 6 (GraphPad Software, La Jolla, Calif., USA). The D'Agostino-Pearson omnibus test was used to evaluate all datasets for Gaussian distribution. Groups were compared using a paired t-test for normally-distributed data sets and a Wilcoxon matched-pairs test when Gaussian distribution could not be assumed. Mean values and standard deviation are reported for data sets with Gaussian distribution. Median and minimum/maximum values are reported for data sets where Gaussian distribution could not be assumed. The significance threshold was set at p=0.05.

[2] = tested on: dogs with suspected chronic pancreatitis; assay: Serum C-reactive protein before and after treatment, clinical trial; format: in vivo, dog; conditions: for Change in serum C-reactive protein, pre- vs post-treatment: methanesulfonate
Method: as §1
Dogs were identified by screening current submissions to the Gastrointestinal Laboratory at Texas A&M indicative of pancreatitis (canine pancreas-specific lipase≧400 μg/L) using an immunoassay for measurement of canine pancreas-specific lipase in canine serum known as the spec CPL® Test (IDEXX, Laboratories). A number of potential study participants were directly referred to the investigator by veterinarians, based on positive pet-side SNAP cPL® Test (IDEXX Laboratories, Westbrook, Me., USA) results and concomitant clinical signs. After ascertaining individual suitability of a patient with the referring veterinarian, serum canine pancreas-specific lipase concentration, serum biochemistry profile, and complete blood count were evaluated or re-evaluated 12±4 days after collection of the initial sample submission to the Gastrointestinal Laboratory. Based on the assumption that consecutive canine pancreas-specific lipase elevations indicate chronic pancreatitis, enrollment was offered for patients with canine pancreas-specific lipase concentrations≧400 μg/L, serum triglyceride concentrations below 500 mg/dL, and no indication of hepatic, renal, or other organ disease. […] Owner consent was required prior to phlebotomy and for enrollment into the trial.
as §2
Blood samples were collected before beginning the treatment and after completion of the treatment period. Complete blood count (red blood cell count, hematocrit, mean corpuscular volume, mean corpuscular hemoglobin, mean corpuscular hemoglobin concentration, differential and absolute white blood cell count, red blood cell count, hemoglobin, platelet estimate, red blood cell morphology, white blood cell morphology, and hemoparasites) was evaluated at the Texas Veterinary Medical Diagnostic Laboratory (TVMDL). A serum chemistry profile with electrolytes (glucose, blood urea nitrogen, creatinine, calcium, phosphorus, albumin, total protein, total bilirubin, alkaline phosphatase, alanine amino transferase, aspartate amino transferase, γ-glutamyl transferase, cholesterol, triglycerides, globuline, sodium, potassium, and chloride) was performed on a SIRRUS analyzer (Stanbio, Boerne, Tex., USA). […]
Pre-treatment and post-treatment results for all diagnostic tests were statistically analyzed using Prism 6 (GraphPad Software, La Jolla, Calif., USA). […]

[3] = target: trypsin (Homo sapiens, UniProt P07477); conditions: cited from earlier work
[4] = tested on: dogs with suspected chronic pancreatitis; assay: Quality of life reported by owners and referring vets, clinical trial; format: in vivo, dog
Method: as §1, §3
Owners of enrolled dogs received instructions to refrain from changing the dog's diet during the trial period and to report on the overall health status and quality of life of their pet.

SMILES: CN(C)C(=O)COC(=O)Cc1ccc(OC(=O)c2ccc(NC(=N)N)cc2)cc1 [Camostat Mesilate, N,N-dimethylcarbamoylmethyl-4-(4-guanidinobenzoyloxy)phenylacetate methanesulfonate]
- Adverse drug reactions ([1]; 4 mg/kg q 8 hrs, 12 dogs, reported in two dogs): increased flatulence
- Adverse drug reactions ([1]; 8 mg/kg q 8 hrs, 17 dogs, each sign in one dog, methanesulfonate): pruritus in one front paw; also recorded: increased flatulence
- Complete blood count and serum biochemistry parameters, pre- vs post-treatment ([1]; all treated dogs): no statistically significant differences
- Increase in serum aspartate amino transferase activity after treatment ([1]; another individual dog): 6 fold
- Side effects overall ([1]; both dosages (12 or 24 mg/kg q d), 26±5 days): very mild side effects
- Other clinical signs suggestive of an adverse drug reaction ([1]; either group (4 or 8 mg/kg q 8 hrs)): No other clinical signs suggestive of an adverse drug reaction were observed
- Increase in serum γ-glutamyl transferase activity after treatment ([1]; one individual dog): 35 fold
- Increase in aspartate amino transferase activity after treatment ([1]; one individual dog (same dog as the γ-glutamyl transferase increase)): 6 fold
- Change in serum C-reactive protein, pre- vs post-treatment ([2]; 4 mg/kg q 8 hrs, n=12): no significant difference; also recorded: did not change significantly
- Serum C-reactive protein concentration post-treatment (median) ([2]; 4 mg/kg q 8 hrs, n=12, pre-treatment median 0.8, post range 0.0-9.4, p=0.1543): 0.6 mg/L
- Serum C-reactive protein concentration post-treatment (median) ([2]; all treated dogs combined, n=29, pre-treatment median 0.2, p=0.0595): 0.1 mg/L
- Change in serum C-reactive protein, pre- vs post-treatment ([2]; all treated dogs combined, n=29, trend towards a decrease): no statistically significant difference; also recorded: did not lead to any significant changes
- Anti-trypsin activity [3]: pronounced anti-trypsin
- Quality of life, reports from referring vets and pet owners ([4]; 24 mg/kg q d orally): subjective improvement of quality of life in some patients
- Quality of life, overall consensus from pet owners ([4]; all treated dogs): had improved
